Activity calls are given as the source filed them. The calls are words filed in the database; no cut-off is given here.
What was measured:
Glutamate receptor 2 [1] = molecular target: Glutamate receptor 2 (Rattus norvegicus, UniProt P19491); assay: biochemical
Glutamate receptor 3 [2] = molecular target: Glutamate receptor 3 (Rattus norvegicus, UniProt P19492); assay: biochemical
Glutamate receptor 4 [3] = molecular target: Glutamate receptor 4 (Rattus norvegicus, UniProt P19493); assay: biochemical
Glutamate receptor 3 [4] = molecular target: T1, Glutamate receptor 3 (Homo sapiens, UniProt P42263); assay: Agonist activity at GluA3 receptor (unknown origin) expressed in HEK293 cells assessed induction of S-glutamate-induced calcium flux at 300 uM measured after 90 secs in presence of cyclothiazide by Fluo4-AM dye-based fluorescence assay relative to S-glutamate; type: cell-based
Glutamate receptor 4 [5] = molecular target: T2, Glutamate receptor 4 (Homo sapiens, UniProt P48058)
Glutamate receptor 4 [6] = molecular target: T2, Glutamate receptor 4; assay: Agonist activity at GluA4 receptor (unknown origin) expressed in HEK293 cells assessed induction of S-glutamate-induced calcium flux at 1000 uM measured after 90 secs in presence of cyclothiazide by Fluo4-AM dye-based fluorescence assay relative to S-glutamate; type: cell-based
[7] = molecular target: Glutamate receptor ionotropic, AMPA (Rattus norvegicus, UniProt P19490+P19491+P19492+P19493)
Glutamate receptor 1 [8] = molecular target: T3, Glutamate receptor 1 (Homo sapiens, UniProt P42261)
Glutamate receptor 1 [9] = molecular target: Glutamate receptor 1 (Rattus norvegicus, UniProt P19490); assay: biochemical
Glutamate receptor 2 [10] = molecular target: Glutamate receptor 2 (Homo sapiens, UniProt P42262)
Glutamate receptor 3 [11] = molecular target: T1, Glutamate receptor 3
[12] = molecular target: T4, Glutamate NMDA receptor; Grin1/Grin2a (Rattus norvegicus) (UniProt P35439+Q00959); assay: Agonist activity at recombinant rat GluN1a/GluN2A expressed in Xenopus laevis oocytes at 100 uM at -40 mV holding potential by two-electrode voltage clamp electrophysiology method; type: cell-based
[13] = molecular target: T5, Glutamate NMDA receptor; Grin1/Grin2b (Rattus norvegicus) (UniProt P35439+Q00960); assay: Agonist activity at recombinant rat GluN1a/GluN2B expressed in Xenopus laevis oocytes at 100 uM at -40 mV holding potential by two-electrode voltage clamp electrophysiology method; type: cell-based
[14] = molecular target: T6, Glutamate NMDA receptor; Grin1/Grin2c (Rattus norvegicus) (UniProt P35439+Q00961); assay: Agonist activity at recombinant rat GluN1a/GluN2C expressed in Xenopus laevis oocytes at 100 uM at -40 mV holding potential by two-electrode voltage clamp electrophysiology method; type: cell-based
[15] = molecular target: T7, Ionotropic glutamate receptor NMDA 1/2D (Rattus norvegicus) (UniProt P35439+Q62645); assay: Agonist activity at recombinant rat GluN1a/GluN2D expressed in Xenopus laevis oocytes at 100 uM at -40 mV holding potential by two-electrode voltage clamp electrophysiology method; type: cell-based
[16] = molecular target: T4, Glutamate NMDA receptor; Grin1/Grin2a (Rattus norvegicus); assay: Agonist activity at recombinant rat GluN1a/GluN2A expressed in Xenopus laevis oocytes at 300 uM at -40 mV holding potential in presence of glutamate by two-electrode voltage clamp electrophysiology method relative to control; type: cell-based
[17] = molecular target: T5, Glutamate NMDA receptor; Grin1/Grin2b (Rattus norvegicus); assay: Agonist activity at recombinant rat GluN1a/GluN2B expressed in Xenopus laevis oocytes at 300 uM at -40 mV holding potential in presence of glutamate by two-electrode voltage clamp electrophysiology method relative to control; type: cell-based
[18] = molecular target: T6, Glutamate NMDA receptor; Grin1/Grin2c (Rattus norvegicus); assay: Agonist activity at recombinant rat GluN1a/GluN2C expressed in Xenopus laevis oocytes at -40 mV holding potential in presence of glutamate by two-electrode voltage clamp electrophysiology method relative to control; type: cell-based
[19] = molecular target: T7, Ionotropic glutamate receptor NMDA 1/2D (Rattus norvegicus); assay: Agonist activity at recombinant rat GluN1a/GluN2D expressed in Xenopus laevis oocytes at -40 mV holding potential in presence of glutamate by two-electrode voltage clamp electrophysiology method relative to control; type: cell-based
[20] = molecular target: T4, Glutamate NMDA receptor; Grin1/Grin2a (Rattus norvegicus); assay: Agonist activity at recombinant rat GluN1a/GluN2A expressed in Xenopus laevis oocytes at 300 uM at -40 mV holding potential in presence of glycine by two-electrode voltage clamp electrophysiology method relative to glycine; type: cell-based
[21] = molecular target: T7, Ionotropic glutamate receptor NMDA 1/2D (Rattus norvegicus); assay: Agonist activity at recombinant rat GluN1a/GluN2D expressed in Xenopus laevis oocytes at -40 mV holding potential in presence of glycine by two-electrode voltage clamp electrophysiology method relative to glycine; type: cell-based
[22] = molecular target: T8, Ionotropic glutamate receptor NMDA 1/2D (Rattus norvegicus, UniProt P35439+Q62645)
[23] = molecular target: T8, Ionotropic glutamate receptor NMDA 1/2D; remark: listed apart in the source
Glutamate receptor 1 [24] = molecular target: T3, Glutamate receptor 1; assay: Agonist activity at GluA1 receptor (unknown origin) expressed in HEK293 cells assessed induction of S-glutamate-induced calcium flux at 300 uM measured after 90 secs in presence of cyclothiazide by Fluo4-AM dye-based fluorescence assay relative to S-glutamate; type: cell-based

T1 sequence (P42263 whole entry): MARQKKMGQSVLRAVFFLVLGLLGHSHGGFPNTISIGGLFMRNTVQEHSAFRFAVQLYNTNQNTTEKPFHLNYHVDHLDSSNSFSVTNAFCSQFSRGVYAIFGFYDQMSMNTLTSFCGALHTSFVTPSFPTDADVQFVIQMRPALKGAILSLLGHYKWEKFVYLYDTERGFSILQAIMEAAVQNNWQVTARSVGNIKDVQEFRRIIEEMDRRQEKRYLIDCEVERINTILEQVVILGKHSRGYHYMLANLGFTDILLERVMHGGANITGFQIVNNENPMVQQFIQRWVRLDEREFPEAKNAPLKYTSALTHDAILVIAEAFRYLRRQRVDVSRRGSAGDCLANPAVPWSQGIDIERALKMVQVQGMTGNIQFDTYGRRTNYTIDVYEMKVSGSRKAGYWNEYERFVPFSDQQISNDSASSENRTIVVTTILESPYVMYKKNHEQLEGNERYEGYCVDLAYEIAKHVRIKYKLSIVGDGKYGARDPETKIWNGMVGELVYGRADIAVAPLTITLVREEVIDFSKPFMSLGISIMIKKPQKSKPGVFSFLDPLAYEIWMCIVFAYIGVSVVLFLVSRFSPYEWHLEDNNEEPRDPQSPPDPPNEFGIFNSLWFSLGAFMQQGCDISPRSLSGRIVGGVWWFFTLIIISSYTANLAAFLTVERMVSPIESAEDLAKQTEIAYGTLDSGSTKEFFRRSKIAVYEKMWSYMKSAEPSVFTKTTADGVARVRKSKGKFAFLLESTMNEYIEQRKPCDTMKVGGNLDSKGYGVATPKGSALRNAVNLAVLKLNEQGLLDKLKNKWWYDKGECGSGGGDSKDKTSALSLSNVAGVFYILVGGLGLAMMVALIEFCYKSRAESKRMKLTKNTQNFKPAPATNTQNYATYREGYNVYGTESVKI
Sequence of Glutamate receptor 4 (Rattus norvegicus, UniProt P19493) (P19493 whole entry): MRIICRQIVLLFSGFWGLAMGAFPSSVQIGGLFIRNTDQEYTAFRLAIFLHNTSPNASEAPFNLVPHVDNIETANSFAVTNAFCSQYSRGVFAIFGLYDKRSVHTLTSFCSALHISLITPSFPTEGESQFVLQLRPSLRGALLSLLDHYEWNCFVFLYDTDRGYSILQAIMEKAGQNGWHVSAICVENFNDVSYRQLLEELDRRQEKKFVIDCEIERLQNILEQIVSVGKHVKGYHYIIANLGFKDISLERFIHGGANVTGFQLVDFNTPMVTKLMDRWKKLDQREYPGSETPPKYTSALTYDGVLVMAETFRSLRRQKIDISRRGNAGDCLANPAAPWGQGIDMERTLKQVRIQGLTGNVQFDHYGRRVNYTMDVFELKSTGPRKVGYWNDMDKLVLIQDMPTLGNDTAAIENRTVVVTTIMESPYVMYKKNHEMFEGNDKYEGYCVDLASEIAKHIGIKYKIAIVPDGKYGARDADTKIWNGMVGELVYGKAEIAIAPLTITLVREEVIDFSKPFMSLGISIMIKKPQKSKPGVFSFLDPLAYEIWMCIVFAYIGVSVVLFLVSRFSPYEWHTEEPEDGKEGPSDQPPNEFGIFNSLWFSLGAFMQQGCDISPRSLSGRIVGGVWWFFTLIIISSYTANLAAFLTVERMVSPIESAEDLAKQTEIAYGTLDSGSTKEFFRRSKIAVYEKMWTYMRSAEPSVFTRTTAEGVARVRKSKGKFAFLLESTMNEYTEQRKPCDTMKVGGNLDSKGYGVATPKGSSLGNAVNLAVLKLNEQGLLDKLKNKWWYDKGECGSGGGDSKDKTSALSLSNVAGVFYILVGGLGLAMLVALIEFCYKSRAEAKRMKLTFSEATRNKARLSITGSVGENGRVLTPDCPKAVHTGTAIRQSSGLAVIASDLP
T3 sequence (P42261 whole entry): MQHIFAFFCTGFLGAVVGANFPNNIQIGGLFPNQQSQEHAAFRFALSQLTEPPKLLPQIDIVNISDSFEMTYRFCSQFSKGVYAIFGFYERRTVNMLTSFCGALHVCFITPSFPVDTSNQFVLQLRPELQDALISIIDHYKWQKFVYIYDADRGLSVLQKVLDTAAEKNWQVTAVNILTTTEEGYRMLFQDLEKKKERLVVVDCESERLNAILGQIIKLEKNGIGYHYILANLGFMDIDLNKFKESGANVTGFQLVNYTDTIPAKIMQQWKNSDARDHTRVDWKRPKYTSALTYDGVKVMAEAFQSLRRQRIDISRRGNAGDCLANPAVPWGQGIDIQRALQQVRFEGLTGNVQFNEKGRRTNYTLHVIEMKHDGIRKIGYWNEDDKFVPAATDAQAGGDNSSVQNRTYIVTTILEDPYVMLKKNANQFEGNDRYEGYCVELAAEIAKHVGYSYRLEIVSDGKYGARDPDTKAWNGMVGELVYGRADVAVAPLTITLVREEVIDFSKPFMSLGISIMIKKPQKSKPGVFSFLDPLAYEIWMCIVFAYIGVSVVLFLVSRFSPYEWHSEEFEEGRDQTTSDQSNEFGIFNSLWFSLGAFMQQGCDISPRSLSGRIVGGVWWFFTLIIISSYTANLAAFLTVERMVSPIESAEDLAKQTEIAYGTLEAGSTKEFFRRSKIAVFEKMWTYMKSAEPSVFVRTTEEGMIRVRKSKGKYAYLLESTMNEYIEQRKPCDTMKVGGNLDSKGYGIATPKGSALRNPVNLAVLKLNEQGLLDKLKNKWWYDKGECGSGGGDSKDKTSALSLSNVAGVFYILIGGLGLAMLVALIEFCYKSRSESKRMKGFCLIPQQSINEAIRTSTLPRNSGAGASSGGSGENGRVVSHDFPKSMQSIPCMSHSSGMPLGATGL
T2 sequence (P48058 whole entry): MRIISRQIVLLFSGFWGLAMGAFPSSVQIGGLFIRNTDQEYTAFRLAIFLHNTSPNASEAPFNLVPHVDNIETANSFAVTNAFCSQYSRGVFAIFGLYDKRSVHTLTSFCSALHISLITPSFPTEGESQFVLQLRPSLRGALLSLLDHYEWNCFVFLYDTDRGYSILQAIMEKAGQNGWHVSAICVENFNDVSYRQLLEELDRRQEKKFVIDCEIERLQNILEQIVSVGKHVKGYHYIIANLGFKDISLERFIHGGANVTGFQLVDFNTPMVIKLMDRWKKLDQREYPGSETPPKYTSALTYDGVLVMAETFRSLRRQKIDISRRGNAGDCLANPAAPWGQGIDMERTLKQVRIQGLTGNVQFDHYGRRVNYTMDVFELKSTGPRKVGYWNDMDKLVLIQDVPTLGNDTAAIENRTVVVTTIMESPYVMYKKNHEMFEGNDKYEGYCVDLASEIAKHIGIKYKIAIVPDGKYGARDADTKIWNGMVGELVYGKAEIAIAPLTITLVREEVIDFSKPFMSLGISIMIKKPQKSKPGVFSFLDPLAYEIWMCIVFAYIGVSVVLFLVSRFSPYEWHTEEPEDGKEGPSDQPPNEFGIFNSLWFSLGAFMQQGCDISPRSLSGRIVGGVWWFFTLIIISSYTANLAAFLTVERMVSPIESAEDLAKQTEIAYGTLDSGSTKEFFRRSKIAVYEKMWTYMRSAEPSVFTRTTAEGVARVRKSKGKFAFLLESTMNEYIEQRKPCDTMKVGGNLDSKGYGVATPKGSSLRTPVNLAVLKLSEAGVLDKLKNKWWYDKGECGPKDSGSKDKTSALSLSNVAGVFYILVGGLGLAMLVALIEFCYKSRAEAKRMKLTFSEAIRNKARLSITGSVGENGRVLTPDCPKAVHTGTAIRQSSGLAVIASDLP
Sequence of Glutamate receptor 3 (Rattus norvegicus, UniProt P19492) (P19492 whole entry): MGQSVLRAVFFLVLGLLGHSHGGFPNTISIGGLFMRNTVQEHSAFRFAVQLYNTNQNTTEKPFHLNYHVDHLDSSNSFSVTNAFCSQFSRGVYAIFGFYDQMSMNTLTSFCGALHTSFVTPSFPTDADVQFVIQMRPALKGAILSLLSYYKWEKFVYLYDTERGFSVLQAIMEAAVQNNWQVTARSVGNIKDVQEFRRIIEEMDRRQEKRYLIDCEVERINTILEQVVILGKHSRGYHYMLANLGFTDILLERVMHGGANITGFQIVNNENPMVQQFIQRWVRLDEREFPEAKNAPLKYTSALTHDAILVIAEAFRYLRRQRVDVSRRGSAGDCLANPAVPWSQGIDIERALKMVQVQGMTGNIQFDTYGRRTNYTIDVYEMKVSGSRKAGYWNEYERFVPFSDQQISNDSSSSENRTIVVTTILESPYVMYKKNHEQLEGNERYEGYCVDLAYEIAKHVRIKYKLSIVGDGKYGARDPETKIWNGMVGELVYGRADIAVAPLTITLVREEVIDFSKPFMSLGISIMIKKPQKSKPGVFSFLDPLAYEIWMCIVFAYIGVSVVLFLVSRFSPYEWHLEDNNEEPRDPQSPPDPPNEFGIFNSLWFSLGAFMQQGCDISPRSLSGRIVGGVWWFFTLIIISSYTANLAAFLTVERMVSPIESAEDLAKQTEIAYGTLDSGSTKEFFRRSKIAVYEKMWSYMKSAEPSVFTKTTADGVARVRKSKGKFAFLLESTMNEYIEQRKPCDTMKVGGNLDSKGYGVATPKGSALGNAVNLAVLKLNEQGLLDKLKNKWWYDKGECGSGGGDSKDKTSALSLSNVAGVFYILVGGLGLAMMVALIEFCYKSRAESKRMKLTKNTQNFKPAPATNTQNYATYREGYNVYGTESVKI

SMILES | Ki (Glutamate receptor 2 [1]) [µM] | Ki (Glutamate receptor 3 [2]) [µM] | Ki (Glutamate receptor 4 [3]) [µM] | EC50 (Glutamate receptor 4 [5]) [µM] | Ki (Glutamate NMDA receptor) [µM] | IC50 [7] [µM] | other results
Cn1nnc(-c2onc(O)c2CC(N)C(=O)O)n1 (centres undefined) | 0.0039 | 0.0022 | 0.0027 | – | – | – | –
CCCn1nnc(O)c1CC(N)C(=O)O (racemic) | 3.25 | – | 100 | 51 | > 100 | – | %max (Glutamate receptor 3 [4]): > 5%
CCCn1nc(O)c(CC(N)C(=O)O)n1 (racemic) | > 100 | > 100 | > 100 | – | > 100 | > 100 | %max (Glutamate receptor 4 [6]): > 5%; EC50 (Glutamate receptor 1 [8]): > 1000 µM; Ki (Glutamate receptor 1 [9]): > 100 µM
CCn1nc(O)c(CC(N)C(=O)O)n1 (racemic) | > 100 | 100 | > 100 | > 1000 | > 100 | > 100 | EC50 (Glutamate receptor 1 [8]): > 1000 µM; EC50 (Glutamate receptor 2 [10]): > 1000 µM; EC50 (Glutamate receptor 3 [11]): > 1000 µM; Ki (Glutamate receptor 1 [9]): > 100 µM
Cn1nc(O)c(C(N)C(=O)O)n1 (racemic) | – | – | – | – | – | > 100 | Activity [12]: inactive; Activity [13]: Active; Activity [14]: Active; Activity [15]: Active; Imax [16]: 38%; Imax [17]: 52%; Imax [18]: 107%; Imax [19]: 98%; Imax [20]: inactive; Imax [21]: 58%; EC50 [22]: 35 µM; EC50 [23]: 58 µM
Cn1nnc(O)c1CC(N)C(=O)O (racemic) | 1.87 | – | – | 56.2 | – | – | %max (Glutamate receptor 1 [24]): > 5%; %max (Glutamate receptor 3 [4]): > 5%
CN[C@H](CC(=O)O)C(=O)O [N-METHYL-D-ASPARTIC ACID (NMDA)] | – | – | – | – | – | > 100 | –

From ChEMBL document CHEMBL4350957, “Use of the 4-Hydroxytriazole Moiety as a Bioisosteric Tool in the Development of Ionotropic Glutamate Receptor Ligands” (J Med Chem, 2019)
